Measured values: patent US11291655B2, “RAD51 inhibitors” (Cyteir Therapeutics, Inc., priority 2017, dated 2022)

Tested on: Daudi Cell Culture
Assay: Compound primary screening in Daudi cell culture
Format: cell-based
Settings: Daudi cells, 1250 cells per well, reads on Day 7; for EC50: Homo sapiens, 168 h
Method: Compound Primary Screening
1. Materials and Supplies
Plastic ware and consumables needed for this experiment include: Cell Culture media; Evaporation Buffer media; 100% DMSO; 96 well U-bottom sterile culture plates; 250 mL bottle; 1.5 mL Opaque amber epi tubes; Epi Tube rack; 300 mL reservoirs; 25 mL reservoir; 25 mL serological pipette tips; 5 mL serological pipette tips P1000 Pipette Tips; and P200 Pipette Tips.
Equipment needed for this experiment include: Viaflo 384 liquid handler; Eppendorf serological pipette; Eppendorf P1000 Pipette; and Eppendorf P200 Pipette
Daudi Cell Culture is also needed for this experiment.
Lastly, compounds (e.g., the compounds of this invention) to be tested are needed.
All steps were performed in a sterile environment inside the Biosafety cabinet.
A 96 well u-bottom plate was prepared by writing the experiment number, plate number, date and initials in the top right corner of the plate lid. With a sterile 300 ml reservoir, and 25 ml serological pipette, evaporation buffer media was pipetted into reservoir in 25 ml increments. Using the liquid handler, 150 ul of evaporation buffer media was pipetted from reservoir into rows A and H, and Columns 1 and 12 of the 96 well u-bottom plate. Cell cultures were counted to obtain the density of cells per ml, and the culture viability. The cell density information was used to obtain 1,000,000 cells from culture using a 5 mL serological pipette into an epi tube. The cell density information from the culture was used to calculate the number of cells and volume of media needed for the assay to seed 1250 cells in 130 ul of media per available culture well in the 96 well u-bottom plate. Rows B through F were used for cells (50 wells in total), with row G left for an empty media control. The calculation was overestimated by 10 mL to account for the dead volume in the 300 ml reservoir. Once the media volume was calculated, the appropriate volume of media was pipetted in 25 mL increments into the 250 mL bottle using a 25 mL serological pipette. The 250 ml bottle was capped tightly, and placed into a 37° C. water bath for 2 minutes. While the culture media was warming, 10 mL of fresh media was pipetted from the 500 mL culture media bottle into a sterile 25 mL reservoir. Using the Eppendorf multichannel pipette, 130 ul of media was pipetted from the 25 mL reservoir into row G of the 96 well u-bottom plate. Once the 250 mL bottle of media was warmed, the volume of culture needed was pipetted into the bottle, and mixed gently with a 25 mL serological pipette as to not create bubbles, and then the contents of the bottle were pipetted into a new 300 mL reservoir. Using the liquid handler, 130 ul of culture was pipetted from the 300 mL reservoir into rows B through F of the 96 well u-bottom plate. Once the culture was added, the plate was placed into a 37° C. incubator until the compound master plate was prepared for use.
Two 96 well u-bottom plates were prepared by writing the master plate name in the upper right corner of the plate lid. Labeling one DMSO master and the other Media Master. The compounds of interest were obtained from the laboratory freezer, and placed into a 25 well storage box with a lid, and set the box aside. The compounds were vortexed after thawing but before use. Using an automatic multichannel pipette, 20 ul of 100% DMSO was pipetted into wells B3-B11 through G3-G11 of the DMSO master plate. For each compound on the master plate, 50 ul of the compound were pipetted in the appropriate well of row 2 (reference plate map to determine appropriate well). A serial dilution was prepared beginning by aspirating 20 ul from row 2 and mixing with row 3, repeating until row 11 was reached. Using the liquid handler, 194 ul of Daudi media was dispensed into wells B2-B11 through G2-G11 of the Media master plate. Using the liquid handler, 6 ul from the DMSO master plate was aspirated and dispensed into the media master plate, mixing 100 ul twice. […]

| SMILES | EC50 | EC50 (μM) |
| --- | --- | --- |
| CNC(=O)c1ccc(-c2cnc(-c3ccc(NC(=O)OC(C)C)cc3)s2)c(S(=O)(=O)NC(C)(C)C)c1 [Compound I5] | < 5 µM |  |
| CC(C)OC(=O)Nc1ccc(-c2ncc(-c3ccc(C(N)=O)cc3S(=O)(=O)NC(C)(C)C)s2)cc1 [Compound I6] | < 5 µM |  |
| CC(C)OC(=O)Nc1ccc(-c2ncc(-c3ccc(CO)cc3S(=O)(=O)NC(C)(C)C)s2)cc1 [Compound J1] | < 5 µM |  |
| CC(C)OC(=O)Nc1ccc(-c2ncc(-c3ccc(-c4ccn[nH]4)cc3S(=O)(=O)NC(C)(C)C)s2)cc1 [Compound J2] | < 5 µM |  |
| CC(C)OC(=O)Nc1ccc(-c2ncc(-c3ccc(NC(C)C(F)(F)F)cc3S(=O)(=O)NC(C)(C)C)s2)cc1 (stereo not shown) [Compound J3, isopropyl N-[4-[5-[2-(tert-butylsulfamoyl)-4-[(2,2,2-trifluoro-1-methyl-ethyl)amino]phenyl]thiazol-2-yl]phenyl]carbamate] | < 5 µM |  |
| CC(C)OC(=O)Nc1ccc(-c2ncc(-c3ccc(N4CCCC4=O)cc3S(=O)(=O)NC(C)(C)C)s2)cc1 [Compound J4] | < 5 µM |  |
| CC(=O)Nc1ccc(-c2cnc(-c3ccc(NC(=O)OC(C)C)nc3)s2)c(S(=O)(=O)NC(C)(C)C)c1 [Compound J5] | < 1 µM |  |
| CC(C)OC(=O)Nc1ccc(-c2ncc(-c3ccc(C(F)(F)F)cc3S(=O)(=O)NC(C)(C)C)s2)cc1 [Compound J6] | < 10 µM |  |
| CC(C)NC(=O)Nc1ccc(-c2ncc(-c3ccc(N4CCCC4=O)cc3S(=O)(=O)NC(C)(C)C)s2)cc1 [Compound J7] | < 10 µM |  |
| CC(C)OC(=O)N(C)c1ccc(-c2ncc(-c3ccc(N4CCCC4=O)cc3S(=O)(=O)NC(C)(C)C)s2)cc1 [Compound J8, isopropyl N-[4-[5-[2-(tert-butylsulfamoyl)-4-(2-oxopyrrolidin-1-yl)phenyl]thiazol-2-yl]phenyl]-N-methyl-carbamate] | < 10 µM |  |
| CC(C)OC(=O)Nc1ccc(-c2ncc(-c3ccc(N4CCCC4=O)cc3S(=O)(=O)NC(C)(C)C)s2)cc1F [Compound J9, isopropyl N-[4-[5-[2-(tert-butylsulfamoyl)-4-(2-oxopyrrolidin-1-yl)phenyl]thiazol-2-yl]-2-fluoro-phenyl]carbamate] | < 5 µM |  |
| CC(=O)Nc1ccc(-c2cnc(-c3ccc(NCC(C)O)cc3)s2)c(S(=O)(=O)NC(C)(C)C)c1 (stereo not shown) [Compound J11] | > 10 µM |  |
| CC(=O)Nc1ccc(-c2cnc(-c3ccc(NCC(C)(C)O)cc3)s2)c(S(=O)(=O)NC(C)(C)C)c1 [Compound J12, N-[3-(tert-butylsulfamoyl)-4-[2-[4-[(2-hydroxy-2-methyl-propyl)amino]phenyl]thiazol-5-yl]phenyl]acetamide] | > 10 µM |  |
| CC(=O)Nc1ccc(-c2cnc(-c3ccc(N4CC(C)(C)OC4=O)cc3)s2)c(S(=O)(=O)NC(C)(C)C)c1 [Compound J13] | > 10 µM |  |
| CC(=O)Nc1ccc(-c2cnc(-c3cccc(NC(=O)OC(C)C)c3)s2)c(S(=O)(=O)NC(C)(C)C)c1 [Compound J14] | < 10 µM |  |
| CC(C)NC(=O)Nc1ccc(-c2ncc(-c3ccc(NS(C)(=O)=O)cc3S(=O)(=O)NC(C)(C)C)s2)cc1 [Compound J15] | > 10 µM |  |
| COc1cc(-c2ncc(-c3ccc(N4CCCC4=O)cc3S(=O)(=O)NC(C)(C)C)s2)ccc1NC(=O)OC(C)C [Compound J16] | < 10 µM |  |
| Cc1cc(-c2ncc(-c3ccc(N4CCCC4=O)cc3S(=O)(=O)NC(C)(C)C)s2)ccc1NC(=O)OC(C)C [Compound J17] |  | FAIL |
| CC(C)OC(=O)Nc1ccc(-c2ncc(-c3ccc(N(C)S(C)(=O)=O)cc3S(=O)(=O)NC(C)(C)C)s2)cc1 [Compound J18] | < 5 µM |  |

| SMILES | EC50 | EC50 (μM) |
| --- | --- | --- |
| CC(=O)Nc1ccc(-c2cnc(-c3ccc(N4CCOC4=O)cc3)s2)c(S(=O)(=O)NC(C)(C)C)c1 [Compound J19, N-[3-(tert-butylsulfamoyl)-4-[2-[4-(2-oxooxazolidin-3-yl)phenyl]thiazol-5-yl]phenyl]acetamide] | > 10 µM |  |
| CC(C)OC(=O)Nc1ccc(-c2ncc(-c3ccc(N4CCN(Cc5ccccc5)C4=O)cc3S(=O)(=O)NC(C)(C)C)s2)cc1 [Compound J21] | > 10 µM |  |
| CC(C)NC(=S)Nc1ccc(-c2ncc(-c3ccc(N4CCN(Cc5ccccc5)C4=O)cc3S(=O)(=O)NC(C)(C)C)s2)cc1 [Compound J22] | > 10 µM |  |
| CC(C)OC(=O)Nc1ccc(-c2ncc(-c3ccc(N4CCOC4=O)cc3S(=O)(=O)NC(C)(C)C)s2)cc1 [Compound J23, isopropyl N-[4-[5-[2-(tert-butylsulfamoyl)-4-(2-oxooxazolidin-3-yl)phenyl]thiazol-2-yl]phenyl]carbamate] | < 5 µM |  |
| CC(C)OC(=O)Nc1ccc(-c2ncc(-c3ccc(N4CCCOC4=O)cc3S(=O)(=O)NC(C)(C)C)s2)cc1 [Compound J24, isopropyl N-[4-[5-[2-(tert-butylsulfamoyl)-4-(2-oxo-1,3-oxazinan-3-yl)phenyl]thiazol-2-yl]phenyl]carbamate] | < 5 µM |  |
| CC(O)CNc1ccc(-c2cnc(-c3ccc(NC(=O)OC(C)C)cc3)s2)c(S(=O)(=O)NC(C)(C)C)c1 (stereo not shown) [Compound J25, isopropyl N-[4-[5-[2-(tert-butylsulfamoyl)-4-(2-hydroxypropylamino)phenyl]thiazol-2-yl]phenyl]carbamate] | < 5 µM |  |
| CC(C)OC(=O)Nc1ccc(-c2ncc(-c3ccc(N4CC(C)OC4=O)cc3S(=O)(=O)NC(C)(C)C)s2)cc1 (stereo not shown) [Compound J26, isopropyl (4-(5-(2-(N-(tert-butyl)sulfamoyl)-4-(5-methyl-2-oxooxazolidin-3-yl)phenyl)thiazol-2-yl)phenyl)carbamate] | < 10 µM |  |
| CC(C)OC(=O)Nc1ccc(-c2ncc(-c3ccc(N4CC(Cc5ccccc5)OC4=O)cc3S(=O)(=O)NC(C)(C)C)s2)cc1 (stereo not shown) [Compound J27, isopropyl (4-(5-(4-(5-benzyl-2-oxooxazolidin-3-yl)-2-(N-(tert-butyl)sulfamoyl)phenyl)thiazol-2-yl)phenyl)carbamate] | > 10 µM |  |
| CC(C)OC(=O)Nc1ccc(-c2ncc(-c3ccc(N4CCC(Cc5ccccc5)C4=O)cc3S(=O)(=O)NC(C)(C)C)s2)cc1 (stereo not shown) [Compound J28, isopropyl (4-(5-(4-(3-benzyl-2-oxopyrrolidin-1-yl)-2-(N-(tert-butyl)sulfamoyl)phenyl)thiazol-2-yl)phenyl)carbamate] | > 10 µM |  |
| CC(C)OC(=O)Nc1ccc(-c2ncc(-c3ccc(N4CC(c5ccccc5)OC4=O)cc3S(=O)(=O)NC(C)(C)C)s2)cc1 (stereo not shown) [Compound J29, isopropyl N-[4-[5-[2-(tert-butylsulfamoyl)-4-(2-oxo-5-phenyl-oxazolidin-3-yl)-phenyl]thiazol-2-yl]phenyl]carbamate] | > 10 µM |  |
| CC(C)OC(=O)Nc1ccc(-c2ncc(-c3ccc(C(=O)NCc4ccccc4)cc3S(=O)(=O)NC(C)(C)C)s2)cc1 [Compound K1] | > 10 µM |  |
| CC(C)OC(=O)Nc1ccc(-c2ncc(-c3cc(NC(=O)OCc4ccccc4)ccc3S(=O)(=O)NC(C)(C)C)s2)cc1 [Compound K2] | > 10 µM |  |
| CC(C)NC(=S)Nc1ccc(-c2ncc(-c3ccc(NC(=O)OCc4ccccc4)cc3S(=O)(=O)NC(C)(C)C)s2)cc1 [Compound L4] | > 10 µM |  |
| CCOC(=O)Nc1ccc(-c2cnc(-c3ccc(NC(=S)NC(C)C)cc3)s2)c(S(=O)(=O)NC(C)(C)C)c1 [Compound L5] | < 5 µM |  |
| CC(C)NC(=S)Nc1ccc(-c2ncc(-c3ccc(NC(=O)c4ccccc4)cc3S(=O)(=O)NC(C)(C)C)s2)cc1 [Compound L6] | < 5 µM |  |
| COC(=O)Nc1ccc(-c2cnc(-c3ccc(NC(=S)NC(C)C)cc3)s2)c(S(=O)(=O)NC(C)(C)C)c1 [Compound L7] | > 10 µM |  |
| CC(C)OC(=O)Nc1ccc(-c2ncc(-c3ccc(NC(=S)NCc4ccccc4)cc3S(=O)(=O)NC(C)(C)C)s2)cc1 [Compound L8] | < 1 µM |  |
| CC(=O)Nc1ccc(-c2cnc(-c3ccc(NC(=S)NCc4ccccc4)cc3)s2)c(S(=O)(=O)NC(C)(C)C)c1 [Compound L9] | < 5 µM |  |
